Source: publication PMC9135895, “The effects of two gold-N-heterocyclic carbene (NHC) complexes in ovarian cancer cells: a redox proteomic study” (Cancer Chemotherapy and Pharmacology, 2022)

Key:
[1] = biological target: T1, Glyceraldehyde-3-phosphate dehydrogenase (GAPDH) (Homo sapiens, UniProt P04406); assay: GAPDH activity ([…] nm) in A2780 crude cell extract after […] min pre-incubation; format: biochemical
T1 construct: endogenous GAPDH in A2780 cell extract

[2] = biological target: T1, Glyceraldehyde-3-phosphate dehydrogenase (GAPDH); assay: GAPDH activity ([…] nm) in A2780 crude cell extract after […] min pre-incubation; no adduct seen by ESI-MS with rabbit GAPDH; format: biochemical

T1 sequence (P04406 2-335): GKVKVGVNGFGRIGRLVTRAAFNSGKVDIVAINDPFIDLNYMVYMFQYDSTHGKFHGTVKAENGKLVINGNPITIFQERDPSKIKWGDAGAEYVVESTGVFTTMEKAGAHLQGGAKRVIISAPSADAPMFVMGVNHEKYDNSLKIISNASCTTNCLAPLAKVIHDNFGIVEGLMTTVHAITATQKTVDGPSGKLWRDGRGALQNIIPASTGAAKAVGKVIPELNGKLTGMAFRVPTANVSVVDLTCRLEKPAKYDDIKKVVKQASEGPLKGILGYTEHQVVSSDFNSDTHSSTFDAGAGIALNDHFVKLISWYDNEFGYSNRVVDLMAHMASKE

## CCCCn1cc[n+](C)[c]1[Au-][Cl] [compound 1, chlorido (1-butyl-3-methyl-imidazole-2-ylidene) gold(I)]
[1]
  EC50: 2.86 ± 0.3 µM

## CCCCn1cc[n+](C)[c]1[AuH][c]1n(CCCC)cc[n+]1C [compound 2, bis(1-butyl-3-methyl-imidazole-2-ylidene) gold(I)]
[2]
  EC50: 7.13 ± 0.1 µM
